Source: the CheMixHub viscosity set

Test: xn = mol fraction of the nth substance listed

CCCCCCO + CCCCCCCC
viscosity [mPa·s]
Conditions | 293.15 K | 298.15 K | 303.15 K | 308.15 K | 313.15 K
100 kPa, x2 = 0.0423 | 4.68 | 4.014 | 3.464 | 3.004 | 2.618
100 kPa, x2 = 0.0824 | 4.117 | 3.546 | 3.072 | 2.675 | 2.34
100 kPa, x2 = 0.1636 | 3.198 | 2.775 | 2.423 | 2.126 | 1.876
100 kPa, x2 = 0.2691 | 2.319 | 2.037 | 1.8 | 1.599 | 1.426
100 kPa, x2 = 0.3407 | 1.877 | 1.663 | 1.482 | 1.327 | 1.193
100 kPa, x2 = 0.3897 | 1.634 | 1.457 | 1.306 | 1.176 | 1.064
100 kPa, x2 = 0.4731 | 1.303 | 1.176 | 1.065 | 0.969 | 0.884
100 kPa, x2 = 0.5241 | 1.148 | 1.043 | 0.95 | 0.869 | 0.797
100 kPa, x2 = 0.5779 | 1.011 | 0.925 | 0.848 | 0.779 | 0.718
100 kPa, x2 = 0.6611 | 0.851 | 0.785 | 0.725 | 0.671 | 0.622
100 kPa, x2 = 0.753 | 0.719 | 0.667 | 0.62 | 0.577 | 0.537
100 kPa, x2 = 0.8903 | 0.582 | 0.543 | 0.508 | 0.475 | 0.445
100 kPa, x2 = 0.9572 | 0.533 | 0.502 | 0.468 | 0.438 | 0.411
100 kPa, x2 = 0.9715 | 0.524 | 0.491 | 0.461 | 0.432 | 0.406
101.33 kPa, x2 = 0.051 | – | 4.054 | – | – | –
101.33 kPa, x2 = 0.1118 | – | 3.29 | – | – | –
101.33 kPa, x2 = 0.1835 | – | 2.593 | – | – | –
101.33 kPa, x2 = 0.3569 | – | 1.552 | – | – | –
101.33 kPa, x2 = 0.5094 | – | 1.074 | – | – | –
101.33 kPa, x2 = 0.5642 | – | 0.955 | – | – | –
101.33 kPa, x2 = 0.6167 | – | 0.857 | – | – | –
101.33 kPa, x2 = 0.6701 | – | 0.77 | – | – | –
101.33 kPa, x2 = 0.7288 | – | 0.686 | – | – | –
101.33 kPa, x2 = 0.8387 | – | 0.566 | – | – | –
101.33 kPa, x2 = 0.937 | – | 0.511 | – | – | –

O=C1CCCCC1 + CCCCCCCC
viscosity [mPa·s]
Conditions | 298.15 K | 303.15 K | 308.15 K
101 kPa, x2 = 0.0833 | 1.59 | – | –
101 kPa, x2 = 0.1727 | 1.31 | – | –
101 kPa, x2 = 0.3177 | 1.023 | – | –
101 kPa, x2 = 0.4682 | 0.829 | – | –
101 kPa, x2 = 0.6244 | 0.693 | – | –
101 kPa, x2 = 0.7825 | 0.602 | – | –
101 kPa, x2 = 0.8935 | 0.55 | – | –
101.33 kPa, x1 = 0.0981 | 0.537 | 0.505 | 0.479
101.33 kPa, x1 = 0.2053 | 0.583 | 0.547 | 0.516
101.33 kPa, x1 = 0.3022 | 0.635 | 0.595 | 0.559
101.33 kPa, x1 = 0.4042 | 0.706 | 0.658 | 0.618
101.33 kPa, x1 = 0.5032 | 0.787 | 0.733 | 0.686
101.33 kPa, x1 = 0.603 | 0.895 | 0.831 | 0.774
101.33 kPa, x1 = 0.7025 | 1.039 | 0.96 | 0.894
101.33 kPa, x1 = 0.8021 | 1.264 | 1.165 | 1.054
101.33 kPa, x1 = 0.8984 | 1.508 | 1.38 | 1.271

CCC12CC3CC(CC(C3)C1)C2 + CCCCCCCCC
viscosity [mPa·s], 100 kPa
Conditions | x1 = 0.0998 | x1 = 0.2013 | x1 = 0.3004 | x1 = 0.4014 | x1 = 0.5002 | x1 = 0.5999 | x1 = 0.7002 | x1 = 0.7995 | x1 = 0.9008
293.15 K | 1.043 | 1.335 | 1.642 | 1.902 | 2.234 | 2.701 | 3.287 | 4.086 | 5.133
298.15 K | 0.972 | 1.243 | 1.492 | 1.728 | 2.019 | 2.384 | 2.881 | 3.537 | 4.44
303.15 K | 0.921 | 1.141 | 1.369 | 1.577 | 1.836 | 2.144 | 2.581 | 3.158 | 3.898
308.15 K | 0.836 | 1.053 | 1.261 | 1.448 | 1.684 | 1.957 | 2.34 | 2.833 | 3.47
313.15 K | 0.786 | 0.985 | 1.166 | 1.334 | 1.547 | 1.792 | 2.128 | 2.556 | 3.114
318.15 K | 0.729 | 0.901 | 1.073 | 1.232 | 1.416 | 1.644 | 1.94 | 2.32 | 2.815
323.15 K | 0.696 | 0.85 | 1.006 | 1.144 | 1.317 | 1.515 | 1.782 | 2.115 | 2.547

O=C1CCCCC1 + CCCCCCCCC
viscosity [mPa·s], 101.33 kPa
Conditions | x1 = 0.0999 | x1 = 0.1981 | x1 = 0.3012 | x1 = 0.4032 | x1 = 0.4987 | x1 = 0.6007 | x1 = 0.6942 | x1 = 0.7981 | x1 = 0.9006
298.15 K | 0.683 | 0.726 | 0.772 | 0.833 | 0.909 | 1.022 | 1.134 | 1.321 | 1.544
303.15 K | 0.639 | 0.675 | 0.718 | 0.775 | 0.842 | 0.936 | 1.043 | 1.21 | 1.41
308.15 K | 0.6 | 0.632 | 0.672 | 0.723 | 0.784 | 0.869 | 0.967 | 1.116 | 1.294
